Where two headings read alike, the source gives them in different places.
Legend:
mAb12.8 [1] = assay type: binding; settings: for binding to mAb12.8: ELISA of Example 2 part A / Example 3, FIG. 4, GM3 immobilized from methanol; for A450 (absorbance at 450 nm): 10 μg/mL mAb12.8
Description: Microtiter plates are prepared with serial dilutions of 3′SL-HSA (prepared as described in Example 1) in Tris-Ca^++ buffer (0.05M Tris HCl, pH 7.5, 0.15 M NaCl, 2 mM CaCl2), starting with 500 ng/well. The plates are incubated at 37° C. for 1 hour to immobilize the carbohydrate on the plastic well surface.
100 μl of 2% BSA in Tans-Cat^++ buffer is added to each well, and the plates are incubated at room temperature for 1 hour, and washed 3 times with Tris-Ca^++ buffer. 100 μl of 10 μg/mL mAb12.8 in 1% BSA Tris-Ca^++ buffer is then added to each well, and the plates are incubated at room temperature for 2 hours. Again, the plates are washed 3 times with Tris-Ca^++ buffer.
100 μl of 1 μg/mL peroxidase-labeled goat anti-mouse IgM (KPL, Inc., Gaithersburg, Md.) in 1% BSA Tris-Ca^++ buffer is added to each well, and the plates are incubated at room temperature for 1 hour, and washed 3 times with Tris-Ca^++ buffer. 100 μl of TMB (tetramethylbenzidine) substrate solution (KPL, Inc., Gaithersburg, Md.) is then added to each well, and the reaction is allowed to proceed for 2 minutes. The reaction is stopped, and detection enhanced, by the addition of 100 μl of 1M formic acid/well. The absorbance at 450 nm is then determined in a Titertek Multiskan MCC/340 plate reader (Flow Laboratories. Inc., McLean, Va.).
To illustrate the specificity of the interaction between 3′SL-HSA and mAb 12.8, and to further characterize the epitope of the antibody, the assay described in Example 2, part A, is performed using the control carbohydrates shown below:
The assays of each of the above HSA conjugates are performed as described for 3′SL-HSA. For GM3, the assay is as described above except that dilutions of GM3 are prepared in methanol, and immobilization on the plastic well surface is achieved by allowing the methanol to completely evaporate under an exhaust hood. After immobilization, 100 μl of 1% BSA in Tris-Ca^++ buffer is added to the wells containing GM3.

mAb12.8 [2] = assay: ELISA, binding of defucosylated SLe^x epitope to mAb12.8 with and without α1,3,4 fucosidase treatment; design: species or system mouse; settings: 250 ng per well, FIG. 3; for binding to mAb12.8 after fucosidase treatment: 200 units per well α1,3,4 fucosidase, 37° C. overnight
Description: In a related experiment, the binding of a partially defucosylated SLe^X epitope (coupled to HSA) is evaluated using a similar ELISA. […] 100 μl of 2% BSA in Tris-Ca^++ buffer is added to each well to block further non-specific binding, and the plates are incubated at room temperature for 1 hour, followed by 2 washes with Tris-Ca^++ buffer. 200 units per well of α1,3,4 fucosidase (New England Biolabs, Beverly, Mass.) in citrate buffer (pH 4.0) is then added to half of the wells. The plates are covered and incubated at 37° C. overnight.
The plates are then washed three times with Tris-Ca^++ buffer and mAb12.8 (100 μl of 10 μg/mL mAb12.8 in Tris-Ca^++ buffer) is then added to each well except for 1 negative control for each condition. The plates are incubated at room temperature for 2 hours.
The plates are then washed 3 times with Tris-Ca^++ buffer, and 100 μl of 1 μg/mL peroxidase-labeled goat anti-mouse IgM (KPL, Inc., Gaithersburg, Md.) in 1% BSA Tris-Ca^++ buffer is added to each well. The plates are incubated at room temperature for 1 hour. The wells are then washed 5 times with Tris-Ca^++ buffer, and 100 μl of TMB substrate solution (KPL, Gaithersburg, Md.) is added to each well, and the reaction is allowed to proceed for 2 minutes. The reaction is stopped, and detection enhanced, by the addition of 100 μl of IM formic acid/well. The absorbance at 450 nm is then determined in a Titertek Multiskan MCC/340 plate reader (Flow Laboratories, Inc., McLean, Va.).

[3] = test system: KG1A cells bound to mAb12.8; assay: Parallel plate flow assay, inhibition of CD34+ (KG1A) cell binding to immobilized mAb12.8; assay type: cell-based; settings: 200 ng carbohydrate per dish, 250 ng mAb12.8, wall shear stress 0.48 dynes/cm^2 for 2 minutes; FIG. 5
Description: This Example illustrates the use of a representative carbohydrate according to this invention to release KG1A cells (ATCC No. CCL246.1, Rockville, Md.) bound to mAb12.8.
Monoclonal antibody 12.8 is immobilized on 35 mm tissue culture dishes by adsorption, as shown below:
Each substrate is coated on the dish and incubated at 37° C. for 1 hour prior to adding the next substrate or running the flow assay. The flow assay utilizes a parallel plate flow chamber mounted on an inverted-stage microscope to visualize the adhesive interactions between cells and substrates. Each dish is attached to the flow chamber and mounted on the microscope stage.
To prevent binding of the cells to mAb12.8 by way of Fc receptors on the cell surface, human IgG ([…]) is added to the KG1A cells 10 minutes prior to the flow assay. In addition, 200 ng of 3′SL-HSA is added to dish 2, and 200 ng of 6′SL-HSA is added to dish 3, and flow is initiated such that the cells flow over the surface of the dish at a wall shear stress of 0.48 dynes/cm^2 for 2 minutes, prior to collecting images at 7 different locations on the dish. The images are then quantified, using video microscopy coupled to digital image processing, to determine the number of adherent cells in each image, and the number of cells in the 7 images are averaged.

mAb12.8 [4] = assay: ELISA, effect of varying linker arm and carrier group on carbohydrate binding to mAb12.8; design: species or system mouse; settings: 100 μl of carbohydrate at 0.5 μg/ml immobilized; 10 μg/ml mAb12.8; FIG. 2
Description: The effect of altering the chemical linker arm and carrier group on the 3′SL binding to mAb12.8 is evaluated using the following carbohydrates, prepared as described in example 1: 3′SL-APD-dendrimer. 3′SL-APD-BSA. 3′SL-APEA-BSA, 3′SL-APD-HSA and 6′SL-APD-HSA.
100 μl of each of the above carbohydrates is added to duplicate wells in a 96-well microtiter plate at 0.5 μg/ml. The plates are incubated overnight at 4° C. to immobilize the carbohydrates on the plastic well surface. The wells are then washed three times and filled with Tris-Cat^++ buffer (0.05 M Tris-HCl, pH 7.5, 0.15 M NaCl, 2 mM CaCl2) containing 1% BSA. The plates are then incubated for 1 hour at room temperature to block nonspecific binding.
The plates are washed three times with Tris-Ca^++ buffer and mAb 12.8 (100 μl of 10 μg/ml in Tris-Ca^++ buffer) is added to all wells except one negative control for each condition. The plates are incubated for an additional two hours at room temperature. […]
Wells are washed five times with Tris-Ca^++ buffer and 100 μl of tetramethylbenzidine solution (TMB substrate solution. KPL, Inc., Gaithersburg, Md.) is added. […] The microtiter plate is read in a Titertek Multiskan MCC/340 plate reader (Flow Laboratories, Inc., McLean, Va.) set at a wavelength of 450 nm.

Row | Substance | binding to mAb12.8 (mAb12.8 [1]) | binding to mAb12.8 after fucosidase treatment (mAb12.8 [2]) | further results
1 | Neu5Acα2-3Galβ1-4(Glc)-APD-HSA [3′SL-HSA] | binds to mAb12.8 | no detectable effect on binding | A450 (absorbance at 450 nm) (mAb12.8 [1]; about 100 ng per well immobilized carbohydrate): greater than 1; A450 (absorbance at 450 nm) (mAb12.8 [1]; about 200 ng per well immobilized carbohydrate): ~3; A450 (absorbance at 450 nm) (mAb12.8 [1]; amounts less than about 70 ng/well immobilized carbohydrate): approximately 0.5; binding to mAb12.8 (mAb12.8 [2]; absence of fucosidase treatment): bind to mAb12.8; inhibition of binding of KG1A cells to mAb12.8 [3]: inhibits the binding of KG1A cells to mAb12.8
2 | Neu5Acα2-6Galβ1-4(Glc)-APD-HSA [6′SL-HSA, reference compound] | does not bind |  | binding to mAb12.8 (mAb12.8 [4]): does not bind
3 | Neu5Acα2-3Galβ1-3GlcNAcβ1-3Galβ1-4(Glc)-APD-HSA [LSTa-HSA, reference compound] | does not bind |  | 
4 | Neu5Acα2-3Galβ1-4Glcβ1-1Ceramide [GM3, reference compound] | does not bind |  | 
5 | Neu5Acα2-3Galβ1-4GlcNAcβ1-3Galβ1-4(Glc)-HSA |  | bind to mAb12.8 | 
